From US10897891B2, “Compositions and methods for prolonged cell storage” (Board of Regents, The University of Texas System, priority 2015, dated 2021)
“Also recorded” adds a separate entry of the source.

Columns and labels:
platelets [1] = assay: Platelet aggregation and shape after cold storage (microscopy, Experiment A); assay type: cell-based, human; conditions: 2% final PEG-400, 5° C., 26 days, rotation 70 cycles per minute
Protocol: Photomicrographs were taken with a Nikon E400 microscope with an Insight 18.2 Color Camera and Spot 5.1 image capture software. No image adjustments were performed. Fluorescent microscopy was performed using a Leica DMIL photomicroscope and Leica LAS V3.8 image acquisition software. No post photographic image adjustments were made.
Platelets are known to change shape and show partial aggregation when chilled. The goal of the initial experiments was to see if this behavior changed when platelets were incubated in the presence of PEG-400. Two standard random donor platelet concentrates, type O, were mixed by connecting the bags, followed by gravity mixing 8 times. This mixture was equally divided by weight into the two original platelet bags and either 10 ml of PBS or 10 ml of PEG-400 in PBS was added to the control and test unit respectively. The final concentration of PEG-400 in the unit was 2%. These units were then gently rotated at 70 cycles per minute, with a 1 inch stroke length, at 5° C., over 26 days. At the end of this time aliquots were examined and photographed. • PBS Control 2% PEG-400 in PBS

platelets [2] = assay: Platelet degranulation by anti-von Willebrand factor immunofluorescent staining (Experiment D); assay type: cell-based, human; conditions: 1.5% PEG-400, 5° C., 8 days, rotation
Protocol: Functional, non-degranulated, platelets should retain vWF at high concentrations in their alpha granules. To study the effect of PEG on gradual loss or preservation a direct fluorescent antibody immunoflorescent staining protocol was developed. Slides were air dried for 5 min and immersed in 0.5% fresh paraformaldehyde in 10% PBS pH 7.3 for 10 min. Slides were soaked for 2 min in PBS with 5 changes. Subsequently excess PBS was drained and slides immersed for 2 min in ice cold dry acetone. Again, slides were drained and excess acetone was removed with 5 PBS washings of 2 min each. Slides were then immersed in 0.5% filter sterilized BSA in PBS and allowed to block overnight at 4° C. After draining excess block solution, 50 ul of primary antibody (Polyclonal rabbit anti-vWF-PB9062, Boster Biological Technology, Pleasanton, Calif.) at 5 ng/ml was applied immediately over the platelet spot and incubated in a humidity chamber for 4 hr at 4° C. Slides were washed with 5 changes of 0.5% BSA/PBS for 5 min each. Excess fluid was again removed and FITC labeled goatd anti-rabbit, Sigma F0382, was added 50 ug/ml in 0.5% BSA/PBS for 3 hr. […]
von Willebrand Factor (vWF) is a major component of platelet alpha granules. […] No post photographic image adjustments were made to images analyzed.

[3] = dogs; cited from earlier work
[4] = primates, for 11 weeks; cited from earlier work

## Polyethylene glycol [PEG-400]
Platelets [1]
  platelet aggregation and rod shapes vs PBS control: control was observed to be more aggregated and to have more rod shapes than the PEG test platelets
Platelets [2]
  vWF degranulation at 5° C.: sufficient to prevent vWG degranulation; also recorded: prevented vWG degranulation
[3]
  toxic endpoint: ~8 g/kg
  toxic endpoint for the whole animal: 0.8%
[4]
  tolerated level: 0.4 % of body weight
